{
  "source": "paper PMC12310023",
  "about": "(PLOS Neglected Tropical Diseases, 2025)",
  "key": {"[1]": {"biological_target": "C. parvum CDPK1 (Cryptosporidium parvum, UniProt A3FQ16)", "sequence (A3FQ16 1-538)": "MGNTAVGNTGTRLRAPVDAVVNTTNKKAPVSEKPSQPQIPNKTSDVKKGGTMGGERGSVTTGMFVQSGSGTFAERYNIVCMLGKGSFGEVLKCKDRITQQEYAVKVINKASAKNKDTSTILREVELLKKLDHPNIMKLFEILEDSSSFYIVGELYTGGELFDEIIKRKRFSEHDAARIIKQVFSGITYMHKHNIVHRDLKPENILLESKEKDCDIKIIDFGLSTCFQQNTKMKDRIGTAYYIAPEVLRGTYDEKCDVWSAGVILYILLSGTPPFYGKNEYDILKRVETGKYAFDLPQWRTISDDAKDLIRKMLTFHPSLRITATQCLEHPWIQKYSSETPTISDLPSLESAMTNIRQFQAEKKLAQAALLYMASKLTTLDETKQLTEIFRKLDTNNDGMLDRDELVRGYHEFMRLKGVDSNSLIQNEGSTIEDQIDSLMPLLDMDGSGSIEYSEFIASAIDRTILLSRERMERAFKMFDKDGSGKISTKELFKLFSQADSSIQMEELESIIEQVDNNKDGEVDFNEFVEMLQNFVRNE", "assay": "CpCDPK1 enzyme inhibition", "assay_type": "biochemical", "from_the_text": "(§1) […]. […] All other methods are specified in S1 File."}, "[2]": {"system": "C. hominis TU502 isolate", "assay": "Calibr high-content imaging Cryptosporidium panel", "assay_type": "cell-based, Cryptosporidium hominis", "settings": "Cryptosporidium hominis"}, "[3]": {"system": "NLuc-expressing C. parvum", "assay": "NLuc C. parvum IFNγ-KO mouse infection model, oocyst shedding", "assay_type": "in vivo"}, "[4]": {"biological_target": "HsSrC (Homo sapiens, UniProt P12931)", "sequence (P12931 whole entry)": "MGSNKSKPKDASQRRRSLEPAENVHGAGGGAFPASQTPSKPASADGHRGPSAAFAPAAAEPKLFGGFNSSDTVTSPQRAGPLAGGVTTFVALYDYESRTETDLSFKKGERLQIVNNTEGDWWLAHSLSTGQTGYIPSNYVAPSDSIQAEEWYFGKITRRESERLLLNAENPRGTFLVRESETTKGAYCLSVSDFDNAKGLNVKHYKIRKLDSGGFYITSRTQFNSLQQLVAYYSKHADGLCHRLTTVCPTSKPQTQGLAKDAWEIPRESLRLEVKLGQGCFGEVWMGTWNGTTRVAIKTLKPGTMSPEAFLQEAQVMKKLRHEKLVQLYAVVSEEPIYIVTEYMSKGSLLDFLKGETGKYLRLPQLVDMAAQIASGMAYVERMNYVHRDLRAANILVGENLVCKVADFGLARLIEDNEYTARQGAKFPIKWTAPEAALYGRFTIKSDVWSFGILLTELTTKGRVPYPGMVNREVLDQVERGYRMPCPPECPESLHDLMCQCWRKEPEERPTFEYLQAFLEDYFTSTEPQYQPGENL", "assay": "SrC enzyme inhibition", "assay_type": "biochemical", "from_the_text": "as §1"}, "[5]": {"biological_target": "T1, AT2 (Homo sapiens, UniProt P50052)", "T1 construct": "Cerep (Eurofins, France)", "T1 sequence (P50052 whole entry)": "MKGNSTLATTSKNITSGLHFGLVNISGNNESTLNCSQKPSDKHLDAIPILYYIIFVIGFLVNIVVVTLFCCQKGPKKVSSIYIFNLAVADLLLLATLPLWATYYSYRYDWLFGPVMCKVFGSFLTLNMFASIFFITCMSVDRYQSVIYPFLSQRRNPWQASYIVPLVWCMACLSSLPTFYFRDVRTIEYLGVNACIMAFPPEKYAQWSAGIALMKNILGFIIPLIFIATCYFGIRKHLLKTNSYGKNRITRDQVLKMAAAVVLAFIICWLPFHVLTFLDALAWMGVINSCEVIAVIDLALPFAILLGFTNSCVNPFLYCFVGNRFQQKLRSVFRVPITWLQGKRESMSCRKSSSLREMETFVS", "assay": "Cerep binding assay"}, "[6]": {"biological_target": "T2, CYP2B6 (Homo sapiens, UniProt P20813)", "T2 sequence (P20813 1-491)": "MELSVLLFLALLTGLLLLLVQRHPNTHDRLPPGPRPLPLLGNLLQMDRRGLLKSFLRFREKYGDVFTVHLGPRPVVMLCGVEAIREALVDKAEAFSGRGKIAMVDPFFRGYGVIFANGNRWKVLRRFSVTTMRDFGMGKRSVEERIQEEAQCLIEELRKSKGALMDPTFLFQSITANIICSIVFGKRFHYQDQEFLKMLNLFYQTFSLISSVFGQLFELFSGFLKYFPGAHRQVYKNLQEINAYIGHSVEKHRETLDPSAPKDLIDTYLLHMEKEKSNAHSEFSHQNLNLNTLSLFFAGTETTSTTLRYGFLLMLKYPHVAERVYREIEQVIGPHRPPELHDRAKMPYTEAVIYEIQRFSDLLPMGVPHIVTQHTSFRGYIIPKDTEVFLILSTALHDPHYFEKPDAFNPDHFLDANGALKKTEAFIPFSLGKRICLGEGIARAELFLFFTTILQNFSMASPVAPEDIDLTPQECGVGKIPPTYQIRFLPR", "assay": "in vitro", "settings": "recombinant CYP2B6 supersomes"}, "[7]": {"biological_target": "CYP3A4 (Homo sapiens, UniProt P08684)", "sequence (P08684 whole entry)": "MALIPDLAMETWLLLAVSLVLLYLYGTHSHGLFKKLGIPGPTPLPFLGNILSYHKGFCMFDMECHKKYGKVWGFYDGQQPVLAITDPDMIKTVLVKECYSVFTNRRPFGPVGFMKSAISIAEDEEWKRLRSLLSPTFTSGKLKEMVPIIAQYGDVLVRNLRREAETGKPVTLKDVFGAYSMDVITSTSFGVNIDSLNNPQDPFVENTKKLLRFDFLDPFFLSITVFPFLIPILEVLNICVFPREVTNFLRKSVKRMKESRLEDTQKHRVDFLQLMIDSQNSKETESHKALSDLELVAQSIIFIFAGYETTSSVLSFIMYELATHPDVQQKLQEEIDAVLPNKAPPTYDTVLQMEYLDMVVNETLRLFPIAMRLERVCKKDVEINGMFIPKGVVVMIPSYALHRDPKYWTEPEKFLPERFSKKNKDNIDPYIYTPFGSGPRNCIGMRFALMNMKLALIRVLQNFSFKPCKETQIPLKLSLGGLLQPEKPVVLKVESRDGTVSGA", "assay": "in vitro", "settings": "recombinant CYP3A4 supersomes"}, "[8]": {"biological_target": "hERG (Homo sapiens, UniProt Q12809)", "sequence (Q12809 whole entry)": "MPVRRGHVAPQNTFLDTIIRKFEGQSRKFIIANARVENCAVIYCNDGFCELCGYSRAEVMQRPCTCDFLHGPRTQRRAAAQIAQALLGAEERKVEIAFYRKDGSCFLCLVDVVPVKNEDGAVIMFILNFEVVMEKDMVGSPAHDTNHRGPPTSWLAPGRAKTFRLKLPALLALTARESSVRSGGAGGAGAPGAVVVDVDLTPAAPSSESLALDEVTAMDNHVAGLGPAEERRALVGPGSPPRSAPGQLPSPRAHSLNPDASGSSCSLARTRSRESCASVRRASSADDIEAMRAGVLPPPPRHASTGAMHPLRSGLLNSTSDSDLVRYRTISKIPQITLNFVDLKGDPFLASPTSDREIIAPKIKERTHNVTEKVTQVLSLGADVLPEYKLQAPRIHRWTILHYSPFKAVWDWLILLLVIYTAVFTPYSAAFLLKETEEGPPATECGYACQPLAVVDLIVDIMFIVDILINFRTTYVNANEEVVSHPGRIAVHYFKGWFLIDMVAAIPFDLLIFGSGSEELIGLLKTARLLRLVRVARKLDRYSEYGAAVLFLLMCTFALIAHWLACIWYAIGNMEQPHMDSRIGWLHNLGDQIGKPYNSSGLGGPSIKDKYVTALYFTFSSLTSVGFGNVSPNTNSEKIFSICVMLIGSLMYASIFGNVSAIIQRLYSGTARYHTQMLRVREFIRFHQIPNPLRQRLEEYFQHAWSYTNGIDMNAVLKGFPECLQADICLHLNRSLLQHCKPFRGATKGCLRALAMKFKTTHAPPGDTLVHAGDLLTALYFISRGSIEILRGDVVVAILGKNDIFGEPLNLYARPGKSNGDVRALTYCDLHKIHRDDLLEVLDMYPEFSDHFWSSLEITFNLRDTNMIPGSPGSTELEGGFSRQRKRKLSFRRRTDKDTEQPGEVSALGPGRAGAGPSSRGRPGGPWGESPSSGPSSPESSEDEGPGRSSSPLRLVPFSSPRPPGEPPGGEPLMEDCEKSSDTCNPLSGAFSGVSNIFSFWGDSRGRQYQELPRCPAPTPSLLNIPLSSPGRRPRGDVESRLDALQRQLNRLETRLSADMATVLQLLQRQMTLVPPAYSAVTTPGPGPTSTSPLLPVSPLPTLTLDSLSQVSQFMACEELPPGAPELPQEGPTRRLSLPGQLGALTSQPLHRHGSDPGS", "assay": "cell-based"}, "[9]": {"assay": "Hepatocyte stability", "settings": "mouse"}, "[10]": {"system": "Salmonella bacteria", "assay": "microAmes (μAmes) test"}, "[11]": {"assay": "Liver microsome stability", "settings": "dog, pooled liver microsomes"}, "[12]": {"system": "CYP1A1", "assay": "CYP Induction Assay in dog hepatocytes", "settings": "30 and 100 μM, 48 h"}, "[13]": {"assay": "Plasma protein binding, equilibrium dialysis", "settings": "mouse"}, "[14]": {"assay": "Plasma protein binding, equilibrium dialysis", "settings": "bovine"}, "[15]": {"assay": "Plasma levels in IFNγ-KO mouse efficacy model"}},
  "note": "Read-outs that look alike come from different tables or passages of the source.",
  "data": [
    {"smiles": "CC1(C)Cn2nc(-c3ccc4cc(OC5CC5)ccc4c3)c(C(N)=O)c2NC1O", "note": "(stereo not drawn) [M2]", "values": [
      {"measurement": "IC50", "setting": "[1]", "value": 92.5, "unit": "nM"},
      {"measurement": "fold reduction in potency compared to BKI-1708", "setting": "[1]", "value": 132, "unit": "fold"},
      {"measurement": "EC50", "setting": "[2]", "value": 440, "unit": "nM"},
      {"measurement": "EC90", "setting": "[2]", "value": 1670, "unit": "nM"},
      {"measurement": "EC50", "setting": "[2]; read-out: TU502 C. hominis Count EC50, Replicate 1", "value": 458, "unit": "nM"},
      {"measurement": "EC50", "setting": "[2]; read-out: TU502 C. hominis Count EC50, Replicate 2", "value": 428, "unit": "nM"},
      {"measurement": "EC90", "setting": "[2]; read-out: TU502 C. hominis Count EC90, Replicate 1", "value": 1930, "unit": "nM"},
      {"measurement": "EC90", "setting": "[2]; read-out: TU502 C. hominis Count EC90, Replicate 2", "value": 1410, "unit": "nM"},
      {"measurement": "day p.i. oocyst shedding reached LoD", "setting": "[3]; M2 8 mg/kg x 3 days PO", "value": 17, "unit": "days"},
      {"measurement": "day p.i. oocyst shedding below LoD", "setting": "[3]; M2 15 mg/kg x 3 days PO", "value": "≤ 10", "unit": "days"},
      {"measurement": "day p.i. oocyst shedding below LoD", "setting": "[3]; M2 30 mg/kg x 3 days PO", "value": "≤ 10", "unit": "days"},
      {"measurement": "IC50", "setting": "[4]", "value": "> 10", "unit": "µM"},
      {"measurement": "IC50", "setting": "[5]", "value": 4.6, "unit": "µM"},
      {"measurement": "inhibition at 10 µM", "setting": "[5]; 10 μM, agonist radioligand, mean, read-out: % inhibition of control specific binding", "value": 50.7, "unit": "%"},
      {"measurement": "CLint scaled", "setting": "[6]", "value": 0.35, "unit": "mL/min/kg"},
      {"measurement": "half-life", "setting": "[6]", "value": 159, "unit": "min"},
      {"measurement": "CLint scaled", "setting": "[7]", "value": 5.02, "unit": "mL/min/kg"},
      {"measurement": "half-life", "setting": "[7]", "value": 49, "unit": "min"},
      {"measurement": "IC50", "setting": "[8]", "value": 6.2, "unit": "µM"},
      {"measurement": "LM:hepatocyte CLint_scaled ratio", "setting": "[9]; liver microsomes and primary hepatocytes", "value": 1.7},
      {"measurement": "CLint scaled", "setting": "[9]; primary hepatocytes", "value": 45, "unit": "mL/min/kg"},
      {"measurement": "half-life", "setting": "[9]; primary hepatocytes", "value": 262, "unit": "min"},
      {"measurement": "hepatocyte CLint", "setting": "[9]; primary hepatocytes", "value": 5.3, "unit": "µL/min/1e6 cells"},
      {"measurement": "μAmes test result", "setting": "[10]", "value": "negative"},
      {"measurement": "CLint scaled", "setting": "[11]", "value": "< 33.3", "unit": "mL/min/kg"},
      {"measurement": "half-life", "setting": "[11]", "value": "> 120", "unit": "min"},
      {"measurement": "microsomal CLint", "setting": "[11]", "value": "< 23.1", "unit": "µL/min/mg"},
      {"measurement": "induction of CYP1A1", "setting": "[12]", "value": "strong inducers"},
      {"measurement": "fraction unbound", "setting": "[13]", "value": 0.04},
      {"measurement": "fraction unbound", "setting": "[14]", "value": 0.05},
      {"measurement": "peak plasma exposure", "setting": "[15]; M2 8 mg/kg x 3 days", "value": "3.0 ± 1.0", "unit": "µM"},
      {"measurement": "peak plasma level", "setting": "[15]; M2 15 mg/kg x 3 days", "value": "6.8 ± 1.2", "unit": "µM"},
      {"measurement": "peak plasma level", "setting": "[15]; M2 30 mg/kg x 3 days", "value": "7.7 ± 3.6", "unit": "µM"}
    ]}
  ]
}
